In general, pIC50 refers to the IC50 on a negative log10 scale, so that one unit is a factor of ten.

From patent publication US20230089867A1, “CYCLIC PENTAMER COMPOUNDS AS PROPROTEIN CONVERTASE SUBTILISIN/KEXIN TYPE 9 (PCSK9) INHIBITORS FOR THE TREATMENT OF METABOLIC DISORDER” (Novartis AG, priority 2018, published 2023) come the findings set out here.

Each structure is given as a SMILES string. pIC50: −log10 of the molar value.

For this experiment, the target named is human PCSK9 (Homo sapiens, UniProt Q8NBP7). As to the kind of experiment: PCSK9 ligand binding TR-FRET assay (interference with binding of human PCSK9 to human LDLR). The conditions noted are these: for Max % inhibition: PCSK9 FRET assay, efficacy (Amax), 100% = 1 uM unlabeled human PCSK9, 0% = DMSO; for pIC50: TR-FRET, human PCSK9 Alexa Fluor 647 / human LDLR extracellular domain-Europium Kryptate, read-out: PCSK9 FRET Assay IC50. The method, boiled down:
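Threefold compound dilutions were pre-incubated 30 min with PCSK9, after which 4 nM Europium Kryptate-tagged human LDLR ectodomain was added for a further 2 h.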
In general terms: In TR-FRET formats the signal depends on donor and acceptor labels being close together.

Sequence of human PCSK9 (Q8NBP7 153-692): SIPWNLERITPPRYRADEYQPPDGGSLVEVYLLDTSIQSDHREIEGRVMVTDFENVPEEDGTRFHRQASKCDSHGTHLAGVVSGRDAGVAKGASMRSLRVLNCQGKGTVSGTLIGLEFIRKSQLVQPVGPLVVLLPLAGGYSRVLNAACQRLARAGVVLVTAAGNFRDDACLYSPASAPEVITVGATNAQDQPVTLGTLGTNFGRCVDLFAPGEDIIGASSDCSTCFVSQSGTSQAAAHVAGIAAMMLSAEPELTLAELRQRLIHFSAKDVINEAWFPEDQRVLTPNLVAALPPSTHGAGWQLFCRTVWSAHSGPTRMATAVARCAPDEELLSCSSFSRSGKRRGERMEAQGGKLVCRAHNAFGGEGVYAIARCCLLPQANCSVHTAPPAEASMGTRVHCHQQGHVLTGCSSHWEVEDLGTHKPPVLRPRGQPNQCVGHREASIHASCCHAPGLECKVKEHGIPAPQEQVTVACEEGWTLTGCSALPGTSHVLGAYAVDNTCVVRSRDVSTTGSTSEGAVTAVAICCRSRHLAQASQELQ
Sequence of human PCSK9 (Q8NBP7 31-152 partner limits assumed): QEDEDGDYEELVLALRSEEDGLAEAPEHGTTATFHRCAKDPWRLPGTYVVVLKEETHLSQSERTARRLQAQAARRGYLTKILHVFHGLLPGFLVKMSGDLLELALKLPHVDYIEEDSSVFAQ

Take `COC[C@@H]1NC(=O)[C@H](C)N(Cc2ccc(Cl)cc2Oc2ccc(-n3cnc(CN4CCOCC4)c3C)cc2)C(=O)C[C@@H](Cc2ccccc2)C(=O)N(C)[C@H]2CCCC[C@@H]2NC(=O)C[C@H](Cc2ccc(Cl)cc2)N(C)C1=O` [Compound 266, (4S,7S,10S,14R,16aS,20aS)-14-benzyl-11-(4-chloro-2-(4-(5-methyl-4-(morpholinomethyl)-1H-imidazol-1-yl)phenoxy)benzyl)-4-(4-chlorobenzyl)-7-(methoxymethyl)-5,10,16-trimethylhexadecahydrobenzo[l][1,4,7,11,14]pentaazacyclooctadecine-2,6,9,12,15(3H)-pentaone]: the Max % inhibition was 106.30% and the pIC50 is 8.72.
On the same counts, the results for `CCOC(=O)CCCN(CCCC(=O)OCC)CCC[C@H]1C(=O)N[C@@H](COC)C(=O)N(C)[C@@H](Cc2ccc(Cl)cc2)CC(=O)N[C@H]2CCCC[C@@H]2N(C)C(=O)[C@H](Cc2ccccc2)CC(=O)N1Cc1ccc(Cl)cc1Oc1ccc(-c2cnc(CN(C)C)n2C)cc1` [Compound 267, diethyl 4,4′-((3-((4S,7S,10S,14R,16aS,20aS)-14-benzyl-11-(4-chloro-2-(4-(2-((dimethylamino)methyl)-1-methyl-1H-imidazol-5-yl)phenoxy)benzyl)-4-(4-chlorobenzyl)-7-(methoxymethyl)-5,16-dimethyl-2,6,9,12,15-pentaoxodocosahydrobenzo[l][1,4,7,11,14]pentaazacyclooctadecin-10-yl)propyl)azanediyl)dibutanoate] are 93.76% and 8.15.
The like results for `CC[C@H](c1ncc(-c2ccc(Oc3cc(Cl)ccc3CN3C(=O)C[C@@H](Cc4ccccc4)C(=O)N(C)[C@H]4CCCC[C@@H]4NC(=O)C[C@H](Cc4ccc(Cl)cc4)N(C)C(=O)[C@H](COC)NC(=O)[C@@H]3C)cc2)n1C)N(C)C` [Compound 268, (4S,7S,10S,14R,16aS,20aS)-14-benzyl-11-(4-chloro-2-(4-(2-((R)-1-(dimethylamino)propyl)-1-methyl-1H-imidazol-5-yl)phenoxy)benzyl)-4-(4-chlorobenzyl)-7-(methoxymethyl)-5,10,16-trimethylhexadecahydrobenzo[l][1,4,7,11,14]pentaazacyclooctadecine-2,6,9,12,15(3H)-pentaone] were, in that order, 68.37% and 8.03.
On to `COC[C@@H]1NC(=O)[C@H](CC(=O)N(C)C)N(Cc2ccc(Cl)cc2Oc2ccc(-c3cnc(CN(C)C)n3C)cc2)C(=O)C[C@@H](Cc2ccccc2)C(=O)N(C)[C@H]2CCCC[C@@H]2NC(=O)C[C@H](Cc2ccc(Cl)cc2)N(C)C1=O` [Compound 269, 2-((4S,7S,10S,14R,16aS,20aS)-14-benzyl-11-(4-chloro-2-(4-(2-((dimethylamino)methyl)-1-methyl-1H-imidazol-5-yl)phenoxy)benzyl)-4-(4-chlorobenzyl)-7-(methoxymethyl)-5,16-dimethyl-2,6,9,12,15-pentaoxodocosahydrobenzo[l][1,4,7,11,14]pentaazacyclooctadecin-10-yl)-N,N-dimethylacetamide], for which the Max % inhibition was 97.18% and the pIC50 was 8.89.
The like results for `COC[C@@H]1NC(=O)[C@H](C)N(Cc2ccc(Cl)cc2Oc2ccc(-n3cnc([C@@H](C)N(C)C)c3C)cc2)C(=O)C[C@@H](Cc2ccccc2)C(=O)N(C)[C@@H](C)[C@H](C)NC(=O)C[C@H](Cc2ccc(Cl)cc2)N(C)C1=O` [Compound 270, (2S,5S,8S,12S,13S,16R)-16-benzyl-1-(4-chloro-2-(4-(4-((R)-1-(dimethylamino)ethyl)-5-methyl-1H-imidazol-1-yl)phenoxy)benzyl)-8-(4-chlorobenzyl)-5-(methoxymethyl)-2,7,12,13,14-pentamethyl-1,4,7,11,14-pentaazacyclooctadecane-3,6,10,15,18-pentaone] were, in that order, 106.63% and 8.57.
Consider `COC[C@@H]1NC(=O)[C@H](C)N(Cc2ccc(Cl)cc2Oc2ccc(-c3cnc(C4=CCOCC4)n3C)cc2)C(=O)C[C@@H](Cc2ccccc2)C(=O)N(C)[C@@H](C)CNC(=O)C[C@H](Cc2ccc(Cl)cc2)N(C)C1=O` [Compound 271, (2S,5S,8S,13S,16R)-16-benzyl-1-(4-chloro-2-(4-(2-(3,6-dihydro-2H-pyran-4-yl)-1-methyl-1H-imidazol-5-yl)phenoxy)benzyl)-8-(4-chlorobenzyl)-5-(methoxymethyl)-2,7,13,14-tetramethyl-1,4,7,11,14-pentaazacyclooctadecane-3,6,10,15,18-pentaone], for which the Max % inhibition was determined as 84.13% and the pIC50 is 8.16.
As for `COC[C@@H]1NC(=O)[C@H](CCCN2CCOCC2)N(Cc2ccc(Cl)cc2Oc2ccc(-c3cnc(CN(C)C)n3C)cc2)C(=O)C[C@@H](Cc2ccccc2)C(=O)N(C)[C@H]2CCCC[C@@H]2NC(=O)C[C@H](Cc2ccc(Cl)cc2)N(C)C1=O` [Compound 272, (4S,7S,10S,14R,16aS,20aS)-14-benzyl-11-(4-chloro-2-(4-(2-((dimethylamino)methyl)-1-methyl-1H-imidazol-5-yl)phenoxy)benzyl)-4-(4-chlorobenzyl)-7-(methoxymethyl)-5,16-dimethyl-10-(3-morpholinopropyl)hexadecahydrobenzo[l][1,4,7,11,14]pentaazacyclooctadecine-2,6,9,12,15(3H)-pentaone], the Max % inhibition came to 98.30% and the pIC50 is 8.92.
The like results for `COC[C@@H]1NC(=O)[C@H](C)N(Cc2ccc(Cl)cc2Oc2ccc(-c3cnc(CN(C)C)n3C)cn2)C(=O)C[C@@H](Cc2ccccc2)C(=O)N(C)[C@H]2CCCC[C@@H]2NC(=O)C[C@H](Cc2ccc(Cl)cc2)N(C)C1=O` [Compound 273, (4S,7S,10S,14R,16aS,20aS)-14-benzyl-11-(4-chloro-2-((5-(2-((dimethylamino)methyl)-1-methyl-1H-imidazol-5-yl)pyridin-2-yl)oxy)benzyl)-4-(4-chlorobenzyl)-7-(methoxymethyl)-5,10,16-trimethylhexadecahydrobenzo[l][1,4,7,11,14]pentaazacyclooctadecine-2,6,9,12,15(3H)-pentaone] were, in that order, 105.53% and 8.52.
On the same counts, the results for `COC[C@@H]1NC(=O)[C@H](C)N(Cc2ccc(Cl)cc2Oc2ccc(-c3cnc(CN(C)C)n3C)cc2)C(=O)CC(Cn2ccccc2=O)C(=O)N(C)[C@H]2CCCC[C@@H]2NC(=O)C[C@H](Cc2ccc(Cl)cc2)N(C)C1=O` (stereo partly drawn) [Compound 275, (4S,7S,10S,16aS,20aS)-11-(4-chloro-2-(4-(2-((dimethylamino)methyl)-1-methyl-1H-imidazol-5-yl)phenoxy)benzyl)-4-(4-chlorobenzyl)-7-(methoxymethyl)-5,10,16-trimethyl-14-((2-oxopyridin-1(2H)-yl)methyl)hexadecahydrobenzo[l][1,4,7,11,14]pentaazacyclooctadecine-2,6,9,12,15(3H)-pentaone] are 102.47% and 9.10.
